Data taken from patent publication US20150157588A1, “Pharmaceutical Composition Comprising Amino-Phenyl-Acetic Acid Octadec-(Z)-9-enyl Ester and Use Thereof for Treating Tumors” (Yeda Research and Development Co., Ltd., priority 2012, published 2015).

Assays:
virulent 3LL clone, D122 = test: 3LL induced lung carcinoma, intravenous injection of D122 cells, deaths and lung weight; type: in vivo, mouse; conditions: for lung weight of the living mice: in mg (unit assumed); for number of dead mice: groups of 10, control seven
Procedure: 8-weeks old C57BL/6 male mice in groups of 10 were injected intravenously with 500,000 cells of a virulent 3LL clone, D122. Mice were treated daily for 35 days with either 5% ethanol in PBS (control); 100 μg amino-phenyl-acetic acid octadec-(Z)-9-enyl ester in 5% ethanol in PBS subcutaneously (SC); or 100 μg amino-phenyl-acetic acid octadec-(Z)-9-enyl ester in 5% ethanol in PBS intranasally (IN).
8-weeks old C57BL/6 male mice in groups of 10 were injected intravenously with 500,000 cells of a virulent 3LL clone, D122. Mice either left untreated, or were treated daily for 30 days with intranasal administration of either 5% ethanol in PBS (control); 100 μg of amino-phenyl-acetic acid octadec-(Z)-9-enyl ester in PBS; or 100 μg of amino-phenyl-acetic acid octadec-(Z)-9-enyl ester in 5% ethanol in PBS.
As shown in FIGS. 7A-7D, while treatment with amino-phenyl-acetic acid octadec-(Z)-9-enyl ester in PBS reduced the lung weight of the living mice from 718±351 in the control mice treated with 5% ethanol in PBS to 671±187 (FIGS. 7B-7C), treatment with amino-phenyl-acetic acid octadec-(Z)-9-enyl ester in ethanol solution reduced the lung weight of the living mice to 317±103 (FIG. 7D).

[1] = system: freshly isolated mouse B cells; test: Spontaneous apoptosis by hypo-diploid nuclei PI staining, primary B cells; type: cell-based; conditions: 1 or 100 μg/ml in ethanol solution
Procedure: Apoptosis was measured by FACS analysis with a hypo-diploid nuclei propidium iodide (PI) staining of freshly isolated mouse B cells treated with amino-phenyl-acetic acid octadec-(Z)-9-enyl ester in ethanol solution. FIGS. 5A-5C: L-12 cells treated with 0, 1 or 100 μg/ml of amino-phenyl-acetic acid octadec-(Z)-9-enyl ester, respectively; FIGS. 5D-5F: L-12 cells treated with 0, 1 or 100 μg/ml of the control reagent 4-methyl-piperazino-acetic acid ethyl ester, respectively; and FIGS. 5G-5I: L-12 cells treated with an ethanol volume corresponding to 0, 1 or to 100 μg/ml of amino-phenyl-acetic acid octadec-(Z)-9-enyl ester in ethanol solution, respectively.
B or T-cell apoptosis was detected by flow cytometry. […] The cells were then subjected to flow cytometric analysis; for each sample 10,000 were collected and cell-cycle distribution was analyzed according to relative DNA content (PI staining). […] The cells were then collected, stained by APO-DIRECT TUNNEL kit (Phnxflow, CITY, Calif., USA); mitochondrial potential was measured by DePsipher (R&D Systems, Minneapolis, Minn.) according to the manufacturer's procedure. Intracellular caspase activity was measured by Apostat kit (R&D Systems), according to the manufacturer's procedure. The cells were analyzed by Flow cytometry using FACSort (Becton Dickinson) and CellQuest software (Becton Dickinson). […]

[2] = system: Clone D122 of the 3LL mouse Lewis Lung carcinoma; test: Lung carcinoma mouse model: 3LL cells in footpad, local growth and mortality from lung metastasis after excision; type: in vivo; conditions: for day of 50% mortality from lung metastasis: 100 μg in PBS subcutaneously twice weekly
Procedure: Clone D122 of the 3LL mouse Lewis Lung carcinoma, a standard model of growth and metastasis, was used. Syngeneic 8-weeks old C57BL/6 male mice were injected into one hind footpad with 50,000 3LL tumor cells. Local growth of the tumor was followed. Tumors that reached the size of 8 mm×8 mm were excised; tumor excision at this stage was known to trigger the growth of lung metastases that eventually killed the mice. This model allows for investigation of the effect of treatment on two phases of the tumor progression: 1) the effect on local growth, as determined by the time it takes for the tumors to reach the size for excision; and 2) the effect on tumor metastasis as measured by the time it takes for death to occur after excision.
Three groups of 12-13 mice each were injected with 3LL tumor cells as described in the Materials and Methods section, and were treated subcutaneously with 100 μg of amino-phenyl-acetic acid octadec-(Z)-9-enyl ester injected twice weekly (every Monday and Thursday) either from day 6 after tumor injection (to investigate the effect on local growth and metastasis) or from the time of excision of the tumor (to investigate the effect on metastasis only), or were injected with PBS as a control. […] Tumors were excised on the same day. Mice treated with PBS or mice treated with amino-phenyl-acetic acid octadec-(Z)-9-enyl ester in PBS only following tumor excision reached excision size beginning on day 25 (white bars). In contrast, mice treated with amino-phenyl-acetic acid octadec-(Z)-9-enyl ester from day 6 following injection (black bars) reached excision size on day 32, and all mice were excised by day 41.
The PBS-treated mice reached 50% mortality on day 50 (triangles); the mice receiving amino-phenyl-acetic acid octadec-(Z)-9-enyl ester in PBS after tumor excision reached 50% mortality only on day 68 (squares); and the mice treated with amino-phenyl-acetic acid octadec-(Z)-9-enyl ester in PBS from day 6 following tumor implantation reached 50% mortality on day 90 (circles).

[3] = system: Jurkat transformed T cell line; test: Apoptosis by FACS, hypo-diploid nuclei PI staining, Jurkat cells; type: cell-based, human; conditions: Jurkat tumor line cells; 10 μg in ethanol solution
Procedure: White bars (left bar of each pair) represent cells treated with 10 μg of amino-phenyl-acetic acid octadec-(Z)-9-enyl ester in ethanol solution, and black bars (right bar of each pair) represent cells treated with 10 μg of the control molecule 4-methyl-piperazino-acetic acid ethyl ester in ethanol solution. The two bars on the left represent freshly isolated T cells and the two bars on the right represent transformed Jurkat cells.
B or T-cell apoptosis was detected by flow cytometry. Briefly, purified cells were seeded in 24 well plates, 5×10^5 per well, and incubated for 48 h at 37° C. 5% CO2 in the presence of HSP60 (heat shock protein 60) at the indicated concentration of amino-phenyl-acetic acid octadec-(Z)-9-enyl ester. […] The cells were then subjected to flow cytometric analysis; for each sample 10,000 were collected and cell-cycle distribution was analyzed according to relative DNA content (PI staining). […] The cells were then collected, stained by APO-DIRECT TUNNEL kit (Phnxflow, CITY, Calif., USA); mitochondrial potential was measured by DePsipher (R&D Systems, Minneapolis, Minn.) according to the manufacturer's procedure. Intracellular caspase activity was measured by Apostat kit (R&D Systems), according to the manufacturer's procedure. The cells were analyzed by Flow cytometry using FACSort (Becton Dickinson) and CellQuest software (Becton Dickinson).

[4] = 100 μg in 5% ethanol in PBS intranasally daily for 35 days
[5] = 100 μg in 5% ethanol in PBS subcutaneously daily for 35 days
[6] = 100 μg in PBS subcutaneously twice weekly from day 6 after tumor injection

CCCCCCCC/C=C\CCCCCCCCOC(=O)C(N)c1ccccc1 (stereo not shown) [amino-phenyl-acetic acid octadec-(Z)-9-enyl ester]
lung weight of the living mice (virulent 3LL clone, D122; 100 μg in 5% ethanol in PBS intranasally daily for 30 days): 317±103 | number of dead mice (virulent 3LL clone, D122; [4]): a single mouse | lung weight of the living mice (virulent 3LL clone, D122; [4]): 259±84 | number of dead mice (virulent 3LL clone, D122; [5]): four | lung weight of the living mice (virulent 3LL clone, D122; [5]): 501±252 | lung weight of the living mice (virulent 3LL clone, D122; 100 μg in PBS intranasally daily for 30 days): 671±187 | spontaneous apoptosis / cell-cycle of primary B cells [1]: partially protected from the spontaneous apoptosis | day after tumor injection on which mice reached excision size (8 mm×8 mm) [2, 6]: 32 days | day by which all mice were excised [2, 6]: ≤ 41 days | day of 50% mortality from lung metastasis ([2]; from day 6 following tumor implantation): 90 days | day of 50% mortality from lung metastasis ([2]; from tumor excision): 68 days | effect on local tumor growth ([2]; twice weekly at the dose of 100 μg, in PBS, subcutaneously): inhibited local tumor growth | apoptosis [3]: 100%
